Reference: US9307761B2, “Microbial composition” (Rohm and Haas Company, priority 2011, dated 2016)

Columns and labels:
Assay type in all cases: cell-based
[1] = test system: Escherichia coli (E. coli—ATCC #10536); test: Automated assessment of efficacy in model surfactant medium (2.85% sodium cocoyl glycinate and 1.85% sodium lauroamphoacetate), 15 seconds exposure, delta OD450/OD590; conditions: for MBC of phenol: phenol alone, complete bacterial kill against E. coli; for MBC of phenol / No. of replicates showing growth (out of 4) / Δ OD 450 nm = OD450 (time = 16 hours) − OD450 (time zero), Mean / Δ OD 590 nm OD590 (time = 16 hours) − OD590 (time zero), Mean: model surfactant solution; for No. of replicates showing growth (out of 4) / Δ OD 450 nm = OD450 (time = 16 hours) − OD450 (time zero), Mean / Δ OD 590 nm OD590 (time = 16 hours) − OD590 (time zero), Mean: 15 s exposure; for MBC: Escherichia coli, ATCC10536, 15 s, in 2.85% sodium cocoyl glycinate + 1.85% sodium lauroamphoacetate solution at pH 10, E. coli, read-out: MBC (minimum biocidal concentration)
Protocol: Micobiocidal Activity of Actives as Per the Invention in a Model Surfactant Medium Test Methodology for Automated Assessment of Efficacy in Surfactant Base
Solutions were prepared such that the concentrations of the surfactant components and test actives were 1.1×the final desired concentration in order to allow for dilution with the bacterial inoculum in the test. The solutions were manually adjusted to […] by dropwise addition of sodium hydroxide solution, as measured with a pH meter at ambient temperature.
Tests were conducted using standard microtiter plate assays using an automated liquid handling system, 270 μl of the surfactant test solution was pipetted into each well of the microtitre plate and 30 μl of the bacterial suspension was then added. After exactly 15 seconds of bacterial exposure, a 30 μl volume of bacterial cells was withdrawn and transferred to 270 μl of D/E quench solution. After 5 minutes in the D/E quench, the optical density (OD) was measured for each plate in turn at two specific wavelengths (450 nm and 590 nm). These provide a dual check of antimicrobial activity, as the OD450 reading is specific for the yellow colour of D/E quench when bacterial growth is observed, whereas OD590 is specific for the initial purple colour of the D/E quench which is retained if no bacterial growth is observed. After the time zero OD measurements, plates were then incubated at 37° C. overnight (16 hours) before repeating the OD measurements. Delta OD values were calculated by subtracting […]. Bacterial growth is observed as art increase in OD450 and a decrease in ΔOD590. To identify antibacterially efficacious systems (those preventing appreciable bacterial growth after incubation), the following threshold changes in OD readings have been adopted: if (1). OD450 increases by less than 0.2 absorbance unit on incubation and (2). OD590 decreases by less than 0.35 unit on incubation. Conversely, where OD450 increases by more than 0.2 AU and OD590 decreases by more than 0.35 unit after incubation, corresponding to a colour shift from purple to yellow, the test system allows bacterial growth and is not deemed efficacious, four replicate measurements in the same plate have been made for each test system. The number of replicate wells showing either bacterial growth or no growth is also readily assessed by eye by following the colour change.
Dose responses for individual components and binary mixtures of actives at a fixed concentration ratio were generated by sequential dilution of liquors with further surfactant solution to obtain a series of endpoints.
In some selected cases, the combinations were also tested at the weight ratio 1:1.

[2] = test system: Escherichia coli (E. coli—ATCC #10536); test: Synergy tests: high resolution MBC microtiter plate assay, 15 seconds contact, phosphate buffer containing […] dipropylene glycol; conditions: E. coli 10536; for SI (Synergy Index = Qa/QA + Qb/QB): at Qa and Qb, <1 synergy, 1 additivity, >1 antagonism; for MBC of the component acting alone (QA or QB): complete kill in 15 seconds
Source text: The concentrations and ratios may also vary under different test conditions or with different test methods.
One measure of synergy is the industrially accepted method described by Kull, F. C.; Eisman, P. C.; Sylwestrowicz, H. D. and Mayer, R. L., in Applied Microbiology 9:538-541 (1961), using the ratio determined by the formula: Qa/QA+Qb/QB=Synergy Index (“SI”) wherein: • QA=concentration of compound A (first component) in percent, acting alone, which produced an end point (MBC of Compound A). • Qa=concentration of compound A in percent, in the mixture, which produced an end point. • QB=concentration of compound B (second component) in percent, acting alone, which produced an end point (MBC of Compound B). • Qb=concentration of compound B in percent, in the mixture, which produced an end point.
When the sum of Qa/QA and Qb/QB is greater than one, antagonism is indicated. […] The lower the SI, the greater is the synergy shown by that particular mixture. The minimum biocidal concentration (MBC) of a microbicide is the lowest concentration tested under a specific set of conditions that provides complete kill of the tested microorganisms.
Synergy tests were conducted using standard microtiter plate assays with phosphate buffer containing 3.5% dipropylene glycol (DPG). In this method, a wide range of combinations of chemicals was tested by conducting high resolution MBC assays of Component (A) in the presence of various concentrations of Component (B). High resolution MBCs were determined by adding varying amounts of microbicide to one column of a microtiter plate and doing subsequent […] dilutions using an automated liquid handling system to obtain a series of closely spaced endpoints. The MBC plate was inoculated one column at a time with the test microorganism. An aliquot of the inoculated well was transferred at 15 seconds to a plate containing a neutralizing agent (D/E Neutralizing Broth), mixed and held for 5 minutes before being transferred to a growth plate containing trypticase soy broth (TSB). The TSB plate was incubated at 37° C. and read for the presence/absence of growth at 24 hours. The lowest level tested that provided complete kill (as evidenced by no growth in the microtitre plate) of the test organisms in 15 seconds is the minimum biocidal concentration (MBC).
The synergy of the combinations of the present invention was determined against a bacterium, Escherichia coli (E. coli—ATCC #10536), at a concentration of approximately 1×10^8 bacteria, per mL. This microorganism is representative of natural contaminants in many consumer and industrial applications.

[3] = test system: Escherichia coli (10536 strain); test: 15 seconds contact kill assay of actives in water, mean bacterial survival NMBS; conditions: for MBC of phenolic compound: phenolic compound alone; for NMBS: alone, 15 seconds contact
[4] = single active alone at 0.1% w/v
[5] = single active alone at 0.2% w/v
[6] = complete bacterial kill against E. coli
[7] = single active alone at 0.3% w/v
[8] = single active alone at 0.175% w/v

## CCC(C)c1ccccc1O (stereo not drawn) [2-sec-butyl phenol]
[1]
  MBC of phenol: 0.175 % (w/v)

## CCCc1ccc(O)cc1 [4-propylphenol]
[1]; [4]
  No. of replicates showing growth (out of 4): 4
  Δ OD 450 nm = OD450 (time = 16 hours) − OD450 (time zero), Mean: −1.59
  Δ OD 590 nm OD590 (time = 16 hours) − OD590 (time zero), Mean: 0.34
[1]; [5]
  No. of replicates showing growth (out of 4): 4
[1]; single active alone at […] w/v
  No. of replicates showing growth (out of 4): 4
[2]
  SI (Synergy Index = Qa/QA + Qb/QB): 1.00

## Cc1cc(O)ccc1C(C)C [4-isopropyl-3-methylphenol]
[1]; single active alone at […] w/v
  No. of replicates showing growth (out of 4): 4
  Δ OD 450 nm = OD450 (time = 16 hours) − OD450 (time zero), Mean: −1.53
  Δ OD 590 nm OD590 (time = 16 hours) − OD590 (time zero), Mean: 0.23

## CCC(C)c1ccccc1O (stereo not drawn) [2-sec-butylphenol]
[1]; [4]
  No. of replicates showing growth (out of 4): 4
  Δ OD 450 nm = OD450 (time = 16 hours) − OD450 (time zero), Mean: −1.44
  Δ OD 590 nm OD590 (time = 16 hours) − OD590 (time zero), Mean: 0.36

## CCCc1ccccc1O [2-propyl phenol]
[3]; [6]
  MBC of phenolic compound: 0.125 % (w/v)

## CC1=CCC(C(C)CO)CC1 (stereo not drawn) [2-(4-methylcyclohex-3-enyl)propan-1-ol]
[2]
  SI (Synergy Index = Qa/QA + Qb/QB): 1.00

## C=C(C)[C@@H]1CC=C(CO)CC1 [(S)-(−) perillyl alcohol]
[1]; [5]
  No. of replicates showing growth (out of 4): 4
  Δ OD 450 nm = OD450 (time = 16 hours) − OD450 (time zero), Mean: −1.44
  Δ OD 590 nm OD590 (time = 16 hours) − OD590 (time zero), Mean: 0.36
[1]; [7]
  No. of replicates showing growth (out of 4): 4
  Δ OD 450 nm = OD450 (time = 16 hours) − OD450 (time zero), Mean: −1.15
  Δ OD 590 nm OD590 (time = 16 hours) − OD590 (time zero), Mean: 0.56
[1]; single active alone at […] w/v
  No. of replicates showing growth (out of 4): 1
  Δ OD 450 nm = OD450 (time = 16 hours) − OD450 (time zero), Mean: −0.18
  Δ OD 590 nm OD590 (time = 16 hours) − OD590 (time zero), Mean: 0.19

## CCC(C)c1ccc(O)cc1 (stereo not drawn) [4-sec-butylphenol]
[2]
  SI (Synergy Index = Qa/QA + Qb/QB): 1.00

## CCCCc1ccc(O)cc1 [4-n-butyl phenol]
[3]; [6]
  MBC of phenolic compound: 0.25 % (w/v)

## CCCCc1ccc(O)cc1 [4-butylphenol]
[1]; [4]
  No. of replicates showing growth (out of 4): 4
  Δ OD 450 nm = OD450 (time = 16 hours) − OD450 (time zero), Mean: −0.61
  Δ OD 590 nm OD590 (time = 16 hours) − OD590 (time zero), Mean: 0.53
[1]; [5]
  No. of replicates showing growth (out of 4): 4
  Δ OD 450 nm = OD450 (time = 16 hours) − OD450 (time zero), Mean: −0.54
  Δ OD 590 nm OD590 (time = 16 hours) − OD590 (time zero), Mean: 0.58
[1]; single active alone at […] w/v
  No. of replicates showing growth (out of 4): 4
  Δ OD 450 nm = OD450 (time = 16 hours) − OD450 (time zero), Mean: −0.58
  Δ OD 590 nm OD590 (time = 16 hours) − OD590 (time zero), Mean: 0.54

## CC(C)(C)c1ccccc1O [2-tert-butylphenol]
[2]
  SI (Synergy Index = Qa/QA + Qb/QB): 1.00

## CC(C)(C)c1ccccc1O [2-ter-butylphenol]
[1]; [8]
  No. of replicates showing growth (out of 4): 4
  Δ OD 450 nm = OD450 (time = 16 hours) − OD450 (time zero), Mean: −1.08
  Δ OD 590 nm OD590 (time = 16 hours) − OD590 (time zero), Mean: 0.57

## CC1CCC(CO)C(C)C1 (stereo not drawn) [dihydrofloralol, 2,4-Dimethylcyclohexylmethanol]
[3]; 0.3% w/v, E. coli
  NMBS: 6.18 log CFU/ml
[3]; 0.4% w/v, E. coli
  NMBS: 3.97 log CFU/ml
[3]; 0.5% w/v, E. coli
  NMBS: 0.00 log CFU/ml
[1]
  MBC: 4000 µg/mL
[1]; [5]
  No. of replicates showing growth (out of 4): 4
  Δ OD 450 nm = OD450 (time = 16 hours) − OD450 (time zero), Mean: −1.39
  Δ OD 590 nm OD590 (time = 16 hours) − OD590 (time zero), Mean: 0.41

## CC1=CC(C)C(CO)C(C)C1 (stereo not drawn) [2,4,6-trimethyl-3-cyclohexene-1-methanol]
[1]
  MBC: 4000 µg/mL
[1]; [5]
  No. of replicates showing growth (out of 4): 4
  Δ OD 450 nm = OD450 (time = 16 hours) − OD450 (time zero), Mean: −1.50
  Δ OD 590 nm OD590 (time = 16 hours) − OD590 (time zero), Mean: 0.29
[1]; single active alone at […] w/v
  No. of replicates showing growth (out of 4): 4
[2]
  SI (Synergy Index = Qa/QA + Qb/QB): 1.00

## CC1=CC[C@@H](CO)[C@H](C)C1 (relative stereo) [Floralol, Trans-4,6-dimethyl-3-Cyclohexene-1-methanol]
[3]; 0.3% w/v, E. coli
  NMBS: 0 log CFU/ml
[3]; 0.4% w/v, E. coli
  NMBS: 0 log CFU/ml
[3]; E. coli, in water, component alone
  MBC (minimum biocidal concentration): 0.3 % w/v
[3]; […] w/v, E. coli
  NMBS: 7.92 log CFU/ml
[3]; antimicrobial alcohol alone, complete bacterial kill against E. coli
  MBC of antimicrobial alcohol: 0.3 % (w/v)
[1]
  MBC: 4000 µg/mL
[1]; [5]
  No. of replicates showing growth (out of 4): 4
  Δ OD 450 nm = OD450 (time = 16 hours) − OD450 (time zero), Mean: −1.43
  Δ OD 590 nm OD590 (time = 16 hours) − OD590 (time zero), Mean: 0.35
[1]; [7]
  No. of replicates showing growth (out of 4): 4
  Δ OD 450 nm = OD450 (time = 16 hours) − OD450 (time zero), Mean: −1.20
  Δ OD 590 nm OD590 (time = 16 hours) − OD590 (time zero), Mean: 0.55
[1]; single active alone at […] w/v
  No. of replicates showing growth (out of 4): 1
  Δ OD 450 nm = OD450 (time = 16 hours) − OD450 (time zero), Mean: −0.29
  Δ OD 590 nm OD590 (time = 16 hours) − OD590 (time zero), Mean: 0.23

## Cc1ccc(C(C)(C)C)c(O)c1 [2-tert-butyl-5-methylphenol]
[1]
  MBC of phenol: 0.2 % (w/v)

## C/C=C/c1ccccc1O [(E)-2-(prop-1-enyl)phenol]
[1]; [4]
  No. of replicates showing growth (out of 4): 4
  Δ OD 450 nm = OD450 (time = 16 hours) − OD450 (time zero), Mean: −0.60
  Δ OD 590 nm OD590 (time = 16 hours) − OD590 (time zero), Mean: 0.59
[1]; [5]
  No. of replicates showing growth (out of 4): 4
  Δ OD 450 nm = OD450 (time = 16 hours) − OD450 (time zero), Mean: −0.53
  Δ OD 590 nm OD590 (time = 16 hours) − OD590 (time zero), Mean: 0.63
[1]; single active alone at […] w/v
  No. of replicates showing growth (out of 4): 4
  Δ OD 450 nm = OD450 (time = 16 hours) − OD450 (time zero), Mean: −0.57
  Δ OD 590 nm OD590 (time = 16 hours) − OD590 (time zero), Mean: 0.58
[2]
  SI (Synergy Index = Qa/QA + Qb/QB): 1.00
  MBC of the component acting alone (QA or QB): 0.8 weight %

## CC(C)(C)c1cccc(O)c1 [3-tert-butylphenol]
[2]
  SI (Synergy Index = Qa/QA + Qb/QB): 1.00
  MBC of the component acting alone (QA or QB): 0.3 weight %
